Data on two compounds can be found in US6906035B2, “Antimicrobial cationic peptides” (priority 1995, dated 2005).

Data set [1] concerns P. aeruginosa. Put plainly: Effect of formulation on bactericidal activity (killing, survivors over time). In kind it is cell-based.
Description: (§1) Effect of formulation on bactericidal activity and MIC was determined using the test solutions listed below.
The subject of the next data set is S. typhimurium. The note with it: S. typhimurium (C610).
The test system of another data set is E. facaelis. Particulars: E. facaelis (C625).
Data set [2] deals with P. aeruginosa. Particulars: P. aeruginosa (H103).
Description: as §1
(§2) The media used in this experiment was Cation Adjusted Muller Hinton (CAMHB), and CAMHB +8 mM citrate.
The conditions of data set [3]: mice.
Description: Immediately afterwards LPS (10 or 20 μg) in 100 μl is injected. The mice are observed at 24 and 48 hours after injections and survivors noted.
Data set [4] deals with LPS-induced TNF in RAW 264.7 macrophage cells. The data set is described as follows: Inhibition of LPS-induced TNF in RAW 264.7 macrophages (L929 cytotoxic assay). In kind it is cell-based, mouse. The note with it: for depression of TNF induction by aspirated medium containing peptide: fresh RAW cells. As for the experimental part:
RAW 264.7 macrophage cells were grown by seeding 10^6 cells into a 162 cm^2 cell culture flask and incubated at 37° C., 5% CO2 for 1 week. RAW cell media [(Dulbecco's Modified Eagle Medium with Hepes buffer 450 ml; 2.4 mML-glutamine 3 ml (400 mM); Pen/Strep 3 ml (10^4 U/ml of Pen, 1 mg/ml strep); and 10% heat inactivated fetal bovine serum (FBS) 50 ml)] was then completely removed from flasks. 10 mls of cell dissociation solution (Sigma) was added to each flask and inc; bated at 37° C. for 10 minutes. Cells were removed from flasks, diluted in RAW cell media and centrifuged for 6 minutes. The cell pellet was resuspended in 5 ml of media/flask used, 100 μl cell suspension was removed and added to 400 μl of trypan blue and cells were counted using a hemocytometer. The cell suspension was diluted to 1×10^6 cells/ml and 1 ml of suspension was added per well of a 24 well plate. The 24 well plates were incubated at 37° C., 5% CO2 overnight for use in the assay.
After an overnight incubation, the media was aspirated from all the wells. 100 μl of Lipopolysaccharide (LPS) was added at 100 ng/100 μl. CEME, CEMA or MBI 29 was added at the desired concentration/100 μl to specified wells. […] The plates were then incubated for six hours at 37° C., 5% CO2. The supernatant was then removed from the wells and stored overnight at 4° C. For those wells in which whole bacteria were added directly to the wells, the supernatant was centrifuged in 0.2 μm filter eppendorf tubes for 5 minutes.
The supernatants were then used in cell cytotoxic L929 assay. The samples were transferred to 96 well plates. 50 μl of TNF media was added to all the wells in all the plates except to those wells in the first row. 10 μl of murine TNF standard (20 ng/ml) and 90 μl of TNF media was added in duplicate to the plate and diluted 1:2 down the plate to the second to last row. Test samples (75 μl), comprising the supernatants from the RAW cell assays, were added to separate rows in duplicate and diluted 1:3 to the second to last rows.
TNF-sensitive L929 mouse fibroblast cells were grown by seeding 10^6 cells into a 162 cm^2 cell culture flask and left to grow for 1 week. L929 cells were removed from the flask with 10 mls of trypsin-EDTA/flask and incubated 3-5 minutes. Cell suspension was diluted and centrifuged for 6 minutes. The pellet was resuspended in 5 mls of fresh L929 media/flask and counted (same as RAW cells). Cell suspension was diluted to 10^6 cells/ml. 100 μl was used to inoculate each well of the 96 well plates with the supernatants. (L929 Growth Media was the same as RAW cell media except instead of FBS, 50 mls of 10% heat inactivated horse serum was utilized; TNF Assay Media was the same as RAW cell media except 4 μg/ml Actinomycin D was added.)
The plates were incubated at 37° C. at 5% CO2 for 2 days. The media was then aspirated and replaced with 100 μl of the dye MTT (0.5 mg/ml) in modified Eagle Medium without phenol red. The plates were then incubated at 37° C. at 5% CO2 for 3 hours. The dye was then removed and replaced with 100 μl of absolute ethanol. […]
The plates were read at 570 nm in a ELISA plate reader with 690 nm reference filter. […]
TNF levels were measured six hours after the addition of E. coli 0111:B4 or E. coli Bort LPS (FIGS. 5a, 5b, 5c and FIGS. 6a and 6c as labeled). […]
In order to determine how rapidly the cationic peptides reduced LPS-induced TNF production, E. coli 0111:B4 was added at time 0 to RAW macrophages. […] Levels of TNF were measured after 6 hours. […]

The next data set has as its system RAW cells. The data set is described as follows: RAW cell viability by Trypan blue exclusion. In kind it is cell-based. Particulars: up to 50 μg peptide.

Where two headings read alike, the source gives them in different places. Ends that are not written are not given here. Where only a bound is given, the exact number is not on record here.

As a reminder, the MIC is the least concentration at which growth counts as inhibited.

Description for A. calcoacet.: as §1, §2
Description for E. cloacae: as §1, §2
Description for E. coli: as §1, §2
Description for E. facaelis: as §1, §2
Description for S. typhimurium: as §1, §2

For KWKSFIKKLTSAAKKVVTTAKPLISS [MBI 26], the “Survivors at Time (min.)” value in the data set on P. aeruginosa [1] (Citrate (0.129 M) +Ascorbic Acid (100 mM), MBI 26 10 MG/ML, 0 min) is recorded as 1.3 × 10^7; in the data set on P. aeruginosa [1] (Citrate (0.129 M) +Ascorbic Acid (100 mM), MBI 26 10 MG/ML, 15 min) it was 0; with P. aeruginosa [1] (Citrate (0.129 M) +Ascorbic Acid (100 mM), MBI 26 10 MG/ML, 30 min) it was 0; in the data set with P. aeruginosa [1] (Citrate (0.129 M) +Ascorbic Acid (100 mM), MBI 26 10 MG/ML, 60 min), 0; with P. aeruginosa [1] (Citrate (0.129 M), MBI 26 10 MG/ML, 0 min) it was 1.1 × 10^7; with P. aeruginosa [1] (Citrate (0.129 M), MBI 26 10 MG/ML, 15 min) it was 0. Also, the “Survivors at Time (min.)” value is 0 with P. aeruginosa [1] (Citrate (0.129 M), MBI 26 10 MG/ML, 30 min); 0 in the data set with P. aeruginosa [1] (Citrate (0.129 M), MBI 26 10 MG/ML, 60 min); 9 × 10^6 in the data set with P. aeruginosa [1] (Citrate-Dextrose, MBI 26 10 MG/ML, 0 min); 20 in the data set on P. aeruginosa [1] (Citrate-Dextrose, MBI 26 10 MG/ML, 15 min); 0 with P. aeruginosa [1] (Citrate-Dextrose, MBI 26 10 MG/ML, 30 min); 0 in the data set on P. aeruginosa [1] (Citrate-Dextrose, MBI 26 10 MG/ML, 60 min). Moreover, the “Survivors at Time (min.)” value in the data set on P. aeruginosa [1] (Citrate-Phosphate Dextrose, MBI 26 10 MG/ML, 0 min) is 0; in the data set with P. aeruginosa [1] (Citrate-Phosphate Dextrose, MBI 26 10 MG/ML, 30 min), 0; with P. aeruginosa [1] (Citrate-Phosphate Dextrose, MBI 26 10 MG/ML, 60 min), 0; in the data set with P. aeruginosa [1] (Dextran, MBI 26 (20 μg), 0 min), 1.9 × 10^7; in the data set with P. aeruginosa [1] (Dextran, MBI 26 (20 μg), 15 min), 1.2 × 10^6; with P. aeruginosa [1] (Dextran, MBI 26 (20 μg), 30 min), 1 × 10^6. Besides, the “Survivors at Time (min.)” value in the data set with P. aeruginosa [1] (Dextran, MBI 26 (20 μg), 60 min) is 8.5 × 10^5. Also, the MIC against E. coli (E. coli (111:B4), CAMHB) came to 8 µg/mL; with E. coli (E. coli (111:B4), CAMHB + Citrate (8 mM)), 2 µg/mL; in the data set on E. coli (E. coli (Bort), CAMHB) it was 16 µg/mL; with E. coli (E. coli (Bort), CAMHB + Citrate (8 mM)) it was 8 µg/mL; against E. coli (E. coli (UB 1005), CAMHB), 4 µg/mL; with E. coli (E. coli (UB 1005), CAMHB + Citrate (8 mM)) it was 2 µg/mL. In addition, the MIC with S. typhimurium (CAMHB) is 8 µg/mL; in the data set on S. typhimurium (CAMHB + Citrate (8 mM)) it was 2 µg/mL; in the data set with E. facaelis (CAMHB), 16 µg/mL; with E. facaelis (CAMHB + Citrate (8 mM)) it was greater than 32 µg/mL; with A. calcoacet. (A. calcoacet (C403), CAMHB), 1 µg/mL; in the data set with A. calcoacet. (A. calcoacet (C403), CAMHB + Citrate (8 mM)), 1 µg/mL. In addition, the MIC with A. calcoacet. (A. calcoacet. (C402), CAMHB) was 8 µg/mL; in the data set with A. calcoacet. (A. calcoacet. (C402), CAMHB + Citrate (8 mM)), 4 µg/mL; with E. cloacae (E. cloacae (C601), CAMHB), 8 µg/mL; with E. cloacae (E. cloacae (C601), CAMHB + Citrate (8 mM)) it was 4 µg/mL; with E. cloacae (E. cloacae (C602), CAMHB) it was 8 µg/mL; with E. cloacae (E. cloacae (C602), CAMHB + Citrate (8 mM)), 4 µg/mL. Also, the MIC against E. cloacae (E. cloacae (C603), CAMHB) was determined as 4 µg/mL; in the data set on E. cloacae (E. cloacae (C603), CAMHB + Citrate (8 mM)) it was 2 µg/mL; against P. aeruginosa [2] (CAMHB) it was 16 µg/mL; in the data set with P. aeruginosa [2] (CAMHB + Citrate (8 mM)), 2 µg/mL. In addition, the non-toxic dose entry in data set [3] was “up to 30.6 mg/kg”.
For the compound `CC[C@H](C)[C@H](NC(=O)[C@H](CC(C)C)NC(=O)[C@H](C)NC(=O)[C@@H]1CCCN1C(=O)[C@H](CC(C)C)NC(=O)CNC(=O)[C@@H](NC(=O)[C@@H](NC(=O)[C@H](CC(C)C)NC(=O)[C@@H](NC(=O)[C@H](CCCCN)NC(=O)[C@H](CCCCN)NC(=O)[C@@H](NC(=O)[C@H](C)NC(=O)[C@@H](NC(=O)[C@@H](NC(=O)[C@H](CC(C)C)NC(=O)[C@H](CCCCN)NC(=O)[C@H](CCCCN)NC(=O)[C@@H](NC(=O)[C@H](Cc1ccccc1)NC(=O)[C@H](CO)NC(=O)[C@H](CCCCN)NC(=O)[C@H](Cc1c[nH]c2ccccc12)NC(=O)[C@@H](N)CCCCN)[C@@H](C)CC)[C@@H](C)O)[C@@H](C)O)C(C)C)C(C)C)[C@@H](C)O)[C@@H](C)O)C(=O)N[C@@H](CO)C(=O)O` [MBI 29], in [4] (20 μg peptide 60 minutes, washed 3 times, then 10 ng or 100 ng LPS), the “TNF induction in RAW cells preincubated with peptide and washed” value is listed as 14,000-20,000 Units of TNF per ml. Besides, in [4] (E. coli 0111:B4 at time 0, peptide added at 0, 30 and 60 minutes, TNF after 6 hours), the “inhibition of TNF induction by LPS” value is “inhibited TNF induction by LPS in a similar manner to polymyxin B”. The “reduction of LPS-induced TNF when added after LPS” value in data set [4] (added 60 minutes after the addition of LPS) is “effective”. The “depression of TNF induction by aspirated medium containing peptide” value in [4] (10 ng E. coli LPS) is reported as 98.5%; in data set [4] (100 ng E. coli LPS), 75%. Also, in the data set with RAW cells, the RAW cell viability entry is “no apparent decrease”.
